Results published in ChEMBL document CHEMBL1125567, “Novel cAMP PDE III inhibitors: 1,6-naphthyridin-2(1H)-ones” (J Med Chem, 1992).

What was measured:
[1] = system: Phosphodiesterase 3 (Canis lupus familiaris); test: In vitro inhibition of cAMP Phosphodiesterase 3 at a concentration of 10 uM
[2] = target: Phosphodiesterase 3 (Canis lupus familiaris); test: Inhibition of cAMP PDE 3
[3] = system: Phosphodiesterase 3 (Canis lupus familiaris); test: Inhibition of cAMP Phosphodiesterase 3 at 10 uM
[4] = system: Phosphodiesterase 3 (Canis lupus familiaris); test: In vitro inhibition of cAMP PDE III by the compound at a concentration of 10 uM
[5] = target: Phosphodiesterase 3 (Canis lupus familiaris); test: In vitro inhibitory activity against cAMP PDE III.
[6] = target: Phosphodiesterase 3 (Canis lupus familiaris); test: Inhibition of cAMP PDE 3; remark: listed apart in the source
[7] = system: Phosphodiesterase 3 (Canis lupus familiaris); test: Inhibition of cAMP PDE 3 at 10 uM
[8] = target: Phosphodiesterase 3 (Canis lupus familiaris); test: Inhibition of cAMP Phosphodiesterase 3

| Compound | inhibition [1] | inhibition [4] | IC50 [5] | other results |
| --- | --- | --- | --- | --- |
| COc1ccc2c(C)nccc2n1 | 21% | – | – | – |
| Cc1nccc2nc(O)c(C(N)=O)cc12 | 39% | – | – | – |
| Cc1ncc([N+](=O)[O-])n1-c1nccc2nc(O)ccc12 | 18% | – | – | – |
| Oc1ccc2c(Br)nccc2n1 | – | – | – | IC50 [2]: 170 nM; inhibition [3]: 70% |
| CC(C)Cc1nccc2nc(O)ccc12 | – | 81% | 570 nM | – |
| Cc1nccn1-c1nccc2nc(O)ccc12 | 34% | – | – | – |
| Cc1cc2cnccc2nc1O | 37% | – | – | – |
| Oc1ccc2c(-c3ccco3)nccc2n1 | – | 74% | 140 nM | – |
| Oc1ccc2c(-n3cncn3)nccc2n1 | – | – | – | inhibition [3]: 50% |
| Oc1ccc2c(-n3cnc(Br)c3)nccc2n1 | – | – | – | inhibition [3]: 43% |
| Cc1nccc2nc(N)ccc12 | 24% | – | – | – |
| Cc1nccc2nc(Cl)ccc12 | – | – | – | inhibition [3]: 18% |
| Cc1nccc2[nH]c(=O)ccc12 [MEDORINONE] | – | – | – | IC50 [6]: 550 nM; inhibition [7]: 67% |
| Cc1c2ccc(=O)[nH]c2cc[n+]1[O-] | – | 65% | 3100 nM | – |
| Cc1nccc2nc(S)ccc12 | 81% | – | – | IC50 [8]: 960 nM |
| Cc1cn(-c2nccc3c2ccc(=O)n3C)cn1 | 21% | – | – | – |
| CC(=O)c1nccc2nc(O)ccc12 | – | 85% | 1420 nM | – |
| Cc1nccc2nc(O)c(C#N)cc12 | 52% | – | – | – |
| Nc1ccc(-c2nccc3nc(O)ccc23)cc1 | – | 91% | 230 nM | – |
| Oc1ccc2c(-n3cnc(-c4ccccc4)c3)nccc2n1 | 43% | – | – | – |
| Oc1ccc2c(-n3cnc(C(F)(F)F)c3)nccc2n1 | 13% | – | – | – |
| Cc1cc2nc(O)ccc2cn1 | 53% | – | – | – |
| Oc1ccc2c(-c3ccc(Cl)cc3)nccc2n1 | – | 78% | 300 nM | – |
| Cc1nccc2nc(O)c(N)cc12 | 59% | – | – | – |

| Compound | inhibition [1] | inhibition [4] | IC50 [5] | other results |
| --- | --- | --- | --- | --- |
| Cc1nccc2nc(O)c(O)cc12 | 51% | – | – | – |
| Cc1ncn(-c2nccc3nc(O)ccc23)n1 | 39% | – | – | – |
| CCc1nccc2nc(O)ccc12 | – | 87% | 40 nM | – |
| Oc1ccc2c(C(Cl)Cl)nccc2n1 | – | – | – | IC50 [2]: 160 nM; inhibition [3]: 83% |
| O=[N+]([O-])c1cn(-c2nccc3nc(O)ccc23)cn1 | 46% | – | – | – |
| OCc1nccc2nc(O)ccc12 | – | 58% | 3700 nM | – |
| Cc1nccc2c1ccc(=O)n2C | 17% | – | – | – |
| Cn1c(=O)ccc2c(-c3ccccc3)nccc21 | 36% | – | – | – |
| Cc1ncn(-c2nccc3nc(O)ccc23)c1C | 28% | – | – | – |
| OCc1cn(-c2nccc3nc(O)ccc23)cn1 | 58% | – | – | – |
| Oc1ccc2c(-c3ccccc3)nccc2n1 | – | 78% | 1400 nM | – |
| Oc1ccc(-c2nccc3nc(O)ccc23)cc1 | 81% | – | – | IC50 [8]: 600 nM |
| CCCc1nccc2nc(O)ccc12 | – | 83% | 48 nM | – |
| Oc1ccc2cnccc2n1 | – | 55% | 18800 nM | – |
| Oc1ccc2c(-n3cccn3)nccc2n1 | 39% | – | – | – |
| Cc1cnn(-c2nccc3nc(O)ccc23)c1 | 30% | – | – | – |
| Oc1ccc2c(-c3ccncc3)nccc2n1 | – | 78% | 2200 nM | – |
| Oc1ccc2c(-c3cccs3)nccc2n1 | – | 79% | 140 nM | – |
| Cc1cn(-c2nccc3nc(O)ccc23)cn1 | – | 72% | 2800 nM | – |
| COc1ccc(-c2nccc3nc(O)ccc23)cc1 | – | 64% | 3200 nM | – |
| Oc1ccc2c(-c3ccc(F)cc3)nccc2n1 | – | 78% | 940 nM | – |
| Oc1ccc2c(-c3ccc(Br)cc3)nccc2n1 | 55% | – | – | – |
| Oc1ccc2c(-n3ccnc3)nccc2n1 | 56% | – | – | – |
